Tested on: subcutaneous SW1222 xenografts
Experiment: Pretargeted PET imaging, control experiments
Format: in vivo, athymic nude mice
Procedure: Due to its pharmacokinetic profile, ^64Cu-Tz-SarAr was selected for in vivo pretargeting experiments. To this end, athymic nude mice bearing A33 antigen-expressing SW1222 human colorectal carcinoma tumors were first injected with huA33-TCO (100 μg). After a 24 h interval during which huA33-TCO accumulated at the tumor and cleared from the blood, the mice were injected with ^64Cu-Tz-SarAr (400-450 μCi). The specific activity of the radiotracer was adjusted using cold ^natCu-Tz-SarAr such that the molar ratio of Tz-SarAr:huA33-TCO≈1:1. […] At 1 h post-injection, the activity concentration in the tumor (5.63±0.67% ID/g) was the highest of all tissues surveyed, while the blood (4.2±0.8% ID/g) and kidneys (3.1±0.3% ID/g) were the healthy organs with the highest background activity concentrations. […]
All pretargeted PET imaging experiments were performed on an Inveon PET/CT scanner (Siemens Healthcare Global). […] Static scans were recorded at various time points after injection with a minimum of 30 million coincident events (10-30 min total scan time). […] Activity concentrations (percentage of dose per gram of tissue [% ID/g]) and maximum intensity projections were determined by conversion of the counting rates from the reconstructed images. All of the resulting PET images were analyzed using ASIPro VM™ software. […]

For `NC12CNCCNCC(NCc3ccc(CNC(=O)CCCC(=O)NCc4ccc(-c5nncnn5)cc4)cc3)(CNCCNC1)CNCCNC2.[64Cu+2]` [^64Cu-Tz-SarAr], which “uptake by the tumor (control PET imaging)” value (^64Cu-Tz-SarAr alone, no antibody) is on record?
Its value is “less than 0.5 % ID/g”.

What about the “uptake by the tumor (control PET imaging)” value (^64Cu-Tz-SarAr with unmodified huA33) of the same compound?
Its value is “less than 0.5 % ID/g”.

Source: patent US11135320B2, “Radioligands for pretargeted pet imaging and methods of their therapeutic use” (priority 2015, dated 2021)
